Assay results as given in the supplement of paper PMC10307832.

How the values were obtained:
Assay in all cases: relative viability (nuclei count vs DMSO), 5 days (fraction); higher = more cells survive
[1] = compound: Cn1nnc2c(C(N)=O)ncn2c1=O [Temozolomide] + C[C@]1(O)C[C@@H](c2nc(-c3ccc4ccc(-c5ccccc5)nc4c3)c3c(N)nccn32)C1 [Linsitinib] (partner 1 µM)
How it was run: (§1)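 Lung cancer cell lines were pin-tool dosed in 1536-well plates on the day after seeding, with either a lone drug or a fixed anchor-drug dose plus five library-drug doses (not always all listed) in √10 steps. Nuclei were counted on 4× images after 5 days. Relative viability is the ratio of treated-well to vehicle-well nuclei counts, with each value a median of duplicate plates.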

AZD5582 + Luminespib = compound: C[C@@H](C(=O)N[C@@H](C1CCCCC1)C(=O)N2CCC[C@H]2C(=O)N[C@@H]3[C@@H](CC4=CC=CC=C34)OCC#CC#CCO[C@@H]5CC6=CC=CC=C6[C@@H]5NC(=O)[C@@H]7CCCN7C(=O)[C@H](C8CCCCC8)NC(=O)[C@H](C)NC)NC [AZD5582] + CCNC(=O)c1noc(-c2cc(C(C)C)c(O)cc2O)c1-c1ccc(CN2CCOCC2)cc1 [Luminespib] (partner 0.01 µM)
How it was run: as §1

AZD5582 + Decitabine = compound: C[C@@H](C(=O)N[C@@H](C1CCCCC1)C(=O)N2CCC[C@H]2C(=O)N[C@@H]3[C@@H](CC4=CC=CC=C34)OCC#CC#CCO[C@@H]5CC6=CC=CC=C6[C@@H]5NC(=O)[C@@H]7CCCN7C(=O)[C@H](C8CCCCC8)NC(=O)[C@H](C)NC)NC [AZD5582] + Nc1ncn([C@H]2C[C@H](O)[C@@H](CO)O2)c(=O)n1 [Decitabine] (partner 2 µM)
How it was run: as §1

AZD5582 + Phenformin = compound: C[C@@H](C(=O)N[C@@H](C1CCCCC1)C(=O)N2CCC[C@H]2C(=O)N[C@@H]3[C@@H](CC4=CC=CC=C34)OCC#CC#CCO[C@@H]5CC6=CC=CC=C6[C@@H]5NC(=O)[C@@H]7CCCN7C(=O)[C@H](C8CCCCC8)NC(=O)[C@H](C)NC)NC [AZD5582] + N=C(N)NC(=N)NCCc1ccccc1 [Phenformin] (partner 250 µM)
How it was run: as §1

Cell Line	relative viability ([1]; first compound 0.2 µM)	relative viability ([1]; first compound 0.6325 µM)	relative viability ([1]; first compound 2 µM)	relative viability ([1]; first compound 6.325 µM)	relative viability ([1]; first compound 20 µM)	relative viability (AZD5582 + Luminespib; first compound 0.005 µM)	relative viability (AZD5582 + Luminespib; first compound 0.01581 µM)	relative viability (AZD5582 + Luminespib; first compound 0.05 µM)	relative viability (AZD5582 + Decitabine; first compound 0.001581 µM)	relative viability (AZD5582 + Decitabine; first compound 0.005 µM)	relative viability (AZD5582 + Decitabine; first compound 0.01581 µM)	relative viability (AZD5582 + Decitabine; first compound 0.05 µM)	relative viability (AZD5582 + Phenformin; first compound 0.005 µM)	relative viability (AZD5582 + Phenformin; first compound 0.05 µM)	relative viability (AZD5582 + Luminespib; first compound 0.001581 µM)	relative viability (AZD5582 + Phenformin; first compound 0.001581 µM)	relative viability (AZD5582 + Phenformin; first compound 0.01581 µM)
NCI-H1792	0.363	0.586	0.498	0.475	0.481	0.594	0.496	0.579	0.503	0.622	0.526	0.672	0.323	1.12	–	–	–
NCI-H2023	0.567	0.7	0.665	0.712	0.662	0.615	0.788	0.65	0.217	0.2	0.243	0.204	0.409	0.408	0.745	0.387	0.348
LU99A	0.595	0.514	0.551	0.564	0.572	0.227	0.271	0.266	0.882	1.09	0.829	0.97	0.927	0.997	0.215	0.785	0.819
SW 1573	0.74	0.738	0.737	0.579	0.659	0.248	0.478	0.285	0.551	0.631	0.674	0.685	0.466	0.499	0.19	0.394	0.37
COR-L23	1.01	1.08	0.863	0.994	0.819	0.739	0.65	0.926	0.476	0.441	0.445	0.481	0.418	0.521	0.635	0.42	0.385
NCI-H23	0.596	0.541	0.698	0.668	0.5	0.207	–	0.276	0.334	0.293	0.27	0.278	0.611	0.425	0.212	0.66	0.518
NCI-H1944	0.662	1.17	1.26	1.11	0.992	0.714	0.757	0.802	0.432	0.485	0.494	0.457	0.227	0.286	0.64	0.176	0.193
NCI-H322M	–	1.02	1.02	0.959	0.665	1.11	–	1.44	0.762	0.739	0.652	0.737	0.996	0.872	0.979	0.776	–
EMC-BAC-2	0.719	0.85	0.766	0.799	0.749	0.922	1.19	0.721	0.892	0.97	0.887	0.841	0.508	0.335	1.06	0.405	0.418
NCI-H3122	0.963	1.02	1.02	0.985	0.98	0.0812	0.0752	0.0956	0.476	0.384	0.42	0.224	0.376	0.19	0.0928	0.362	0.354
NCI-H520	1.03	0.904	0.98	0.941	1.04	0.276	0.247	0.212	0.504	0.515	0.509	0.557	0.539	0.53	0.228	0.451	0.528
HARA	0.593	0.985	1.09	0.933	0.863	0.727	0.733	1.21	0.595	0.53	0.565	0.49	0.501	0.403	0.39	0.415	0.493
NCI-H358	0.576	0.728	0.854	0.797	0.617	0.279	0.357	0.417	0.199	0.241	0.245	0.215	0.374	0.313	0.225	0.366	0.399
NCI-H2347	1.08	1.11	1	0.859	0.964	0.239	0.262	0.692	0.701	0.624	0.668	0.469	0.352	0.239	0.616	0.356	0.38
UMC-11	1	1.06	0.942	0.91	0.584	1.23	1.06	1.14	0.637	0.638	0.731	0.71	0.301	0.412	0.933	0.281	0.298
NCI-H2009	1.2	1.22	1.3	1.2	1.22	0.987	1.02	1.09	0.4	0.355	0.412	0.363	0.534	0.451	0.959	0.445	0.454
NCI-H1437	1.15	1.02	1.11	1.01	1.14	0.986	1.12	1.14	0.543	0.554	0.595	0.565	0.279	0.365	1.11	0.251	0.254
NCI-H647	1.27	1.2	1.15	0.776	0.295	0.149	0.171	0.107	0.426	0.366	0.417	0.331	0.504	0.459	0.145	0.47	0.456
